In patent US11591323B2, “Muscarinic agonists as non-steroidal and non-opioid analgesics and methods of use thereof” (Barry University, priority 2019, dated 2023):
Entries after “also recorded” stand apart in the source; their conditions may differ.

Columns and labels:
Assay type in all cases: cell-based
cerebellum (M2 rich) = assay: forskolin-stimulated cAMP in dissipated rat cerebellum; details: in words
Experimental: (§1) Effects of compounds 6A and 7A were then measured ex vivo in dissipated rat tissues (FIG. 5). Accumulation of IPX was measured in dissipated brain cortex (rich in M1 & M3), submaxillary gland (M1 & M3), and ventral tegmental area (M5). Native tissues express about 10-times less muscarinic receptors than CHO cell lines. Accumulation of cAMP was measured in cerebellum (M2) and striatum (M4).
(§2) Rat dissipated tissues: Suspension of dissipated tissues from rat brain cortex, cerebellum, striatum, ventral tegmental area (VTA) and submaxillary glands was prepared as described previously in supplementary methods. Adult 8-weeks old male Wistar rats were scarified by cervical dislocation in accordance with current legislative and guidelines under permission of Czech Ministry of Agriculture 16OZ23113/2017-17214. Tissues were dissected immediately. Submaxillary glands were minced by scissors. Tissues were dispersed by incubation for 15 min at 37° C. in KHB supplemented with trypsin and trituration every 5 min. Large undissipated parts were removed by cell mesh. Then dissipated tissues were centrifuged 3 min at 250×g, re-suspended in KHB and centrifuged again to remove trypsin. Suspension of dissipated tissues was used immediately in experiments. Two submaxillary glands or about 400 mg of brain tissue was used a 96-sample assay.
(§3) Measurements of the production of cAMP and inositol phosphates: Levels of second messengers cAMP and inositol phosphates were determined in radiochemical chromatography assays as described previously. To determine level of cAMP, cells in suspension were pre-incubated for 1 h with 0.4 μM [^3H]adenine, washed, and incubated for 10 min in the presence of isobutylmethylxanthine and 10 μM forskolin. […] Incubation was ended by addition of 0.2 ml of 2.5 M HCl to the samples. Samples were applied to alumina columns (1.5 g of alumina per column), washed with 2 ml ammonium acetate (pH=7.0) and eluted from columns with 4 ml ammonium acetate and measured by liquid scintillation spectrometry. […] For this purpose, new CHO cell lines stably expressing promiscuous G15 G-protein and M2 or M4 receptor were generated by transfection with pCMV/hygro vector and hygromycin selection. To determine the rate of formation of inositol phosphates IPX, suspended cells were pre-incubated with 0.1 μM [^3H]myo-inositol for 60 min, washed, and incubated with 10 mM LiCl for 15 min. […] The incubation was stopped by addition of 0.5 ml of chloroform methanol HCl mixture (2:1:0.1). After separation of water and organic phases, 0.6 ml of water phase was applied to Dowex columns (1.5 g of Dowex per column), washed by 20 ml of 60 mM ammonium formate/5 mM sodium borate buffer and eluted from columns with 4 ml of 1M ammonium formate/0.1 formic acid buffer and measured by liquid scintillation spectrometry.
To exclude the possibility that the observed effects of compounds 6A and 7A are the result of overexpression in the heterologous system, functional response to the compounds was measured ex vivo in dissipated native rat tissues. […] Accumulation of IPX was measured in brain cortex, submaxillary gland, and ventral tegmental area (VTA) as brain cortex and submaxillary glands are rich in M1 and in M3 receptors, respectively, and VTA is the only region expressing significant amount of M5 receptors. Accumulation of cAMP was measured in M2-rich cerebellum and M4-rich striatum.

[1] = test system: ventral tegmental area (M5); assay: accumulation of IPX in dissipated rat ventral tegmental area; details: dissipated rat VTA, in words
Experimental: as §1
as §2, with “Then dissipated tissues were centrifuged 3 min at 250×g, re-suspended in KHB and centrifuged again to remove trypsin. Suspension of dissipated tissues was used immediately in experiments. Two submaxillary glands or about 400 mg of brain tissue was used a 96-sample assay.” left out
Measurements of the production of cAMP and inositol phosphates: Levels of second messengers cAMP and inositol phosphates were determined in radiochemical chromatography assays as described previously. […] Samples were applied to alumina columns (1.5 g of alumina per column), washed with 2 ml ammonium acetate (pH=7.0) and eluted from columns with 4 ml ammonium acetate and measured by liquid scintillation spectrometry. […] After separation of water and organic phases, 0.6 ml of water phase was applied to Dowex columns (1.5 g of Dowex per column), washed by 20 ml of 60 mM ammonium formate/5 mM sodium borate buffer and eluted from columns with 4 ml of 1M ammonium formate/0.1 formic acid buffer and measured by liquid scintillation spectrometry.
To exclude the possibility that the observed effects of compounds 6A and 7A are the result of overexpression in the heterologous system, functional response to the compounds was measured ex vivo in dissipated native rat tissues. […] Accumulation of cAMP was measured in M2-rich cerebellum and M4-rich striatum.

M2 muscarinic receptor = biological target: T1, M2 muscarinic receptor (Homo sapiens, UniProt P08172); assay: accumulation of IPX, M2 CHO cells (M2Gq); parameters: host or cells: CHO cells, stably transfected; details: for RAi / E′MAX / τ / Δlog(τ/KA): M2Gq (↑IPX); for RAi: Table 8, relative to carbachol; for E′MAX / τ: Table 8; for Δlog(τ/KA): Table 8, to carbachol
T1 sequence (P08172 1-466): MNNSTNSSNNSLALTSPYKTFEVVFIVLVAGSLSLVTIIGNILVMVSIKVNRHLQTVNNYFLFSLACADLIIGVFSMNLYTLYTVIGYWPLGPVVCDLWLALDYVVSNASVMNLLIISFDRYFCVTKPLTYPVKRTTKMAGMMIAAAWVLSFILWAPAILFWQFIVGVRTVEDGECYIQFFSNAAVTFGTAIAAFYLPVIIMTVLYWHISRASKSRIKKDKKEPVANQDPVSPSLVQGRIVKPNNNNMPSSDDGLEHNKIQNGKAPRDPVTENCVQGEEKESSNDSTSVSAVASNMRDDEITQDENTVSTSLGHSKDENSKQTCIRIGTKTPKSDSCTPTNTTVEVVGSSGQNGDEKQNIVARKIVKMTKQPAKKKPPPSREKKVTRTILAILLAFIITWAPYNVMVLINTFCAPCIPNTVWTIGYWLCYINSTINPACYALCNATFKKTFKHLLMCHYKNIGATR
Experimental: To determine level of cAMP, cells in suspension were pre-incubated for 1 h with 0.4 μM [^3H]adenine, washed, and incubated for 10 min in the presence of isobutylmethylxanthine and 10 μM forskolin. […] Incubation was ended by addition of 0.2 ml of 2.5 M HCl to the samples. Samples were applied to alumina columns (1.5 g of alumina per column), washed with 2 ml ammonium acetate (pH=7.0) and eluted from columns with 4 ml ammonium acetate and measured by liquid scintillation spectrometry. […] The incubation was stopped by addition of 0.5 ml of chloroform methanol HCl mixture (2:1:0.1). After separation of water and organic phases, 0.6 ml of water phase was applied to Dowex columns (1.5 g of Dowex per column), washed by 20 ml of 60 mM ammonium formate/5 mM sodium borate buffer and eluted from columns with 4 ml of 1M ammonium formate/0.1 formic acid buffer and measured by liquid scintillation spectrometry.
as §3
For bi-phasic response, curves were inhibitory and stimulatory phase were fitted separately. Operational Model of Functional Agonism
[formula] where y is functional response at concentration of tested compound x, EMAX is maximal response of the system, KA is equilibrium dissociation constant and nH is slope factor. Eq. 5 was fitted to data from functional experiments. Eq. 5 was fitted to data by the two-step procedure described earlier. […] In the second step, Eq. 5 with EMAX fixed to the value determined in the first step was fitted to individual experimental data sets. Relative Intrinsic Activity

SMILES | Emax of inhibition of cAMP synthesis (cerebellum (M2 rich)) | forskolin-stimulated cAMP level (cerebellum (M2 rich)) | accumulation of IPX [1] | RAi (M2 muscarinic receptor) | E′MAX (M2 muscarinic receptor) | τ (M2 muscarinic receptor) | Δlog(τ/KA) (M2 muscarinic receptor) | EC50 (M2 muscarinic receptor) | Kd (M2 muscarinic receptor)
C1=CCN(Cc2cccs2)CC1.Cl [Compound 6A, 1-[(thiophen-2-yl)methyl]-1,2,3,6-tetrahydropyridin-1-ium chloride] | comparable to inhibition by carbachol | only a decrease in cAMP level | negligible increase in IPX | 0 | – | – | – | – | –
C[N+](C)(C)CCOC(N)=O [carbachol, reference compound] | – | transient decrease in forskolin-stimulated cAMP level at nanomolar concentrations followed by an increase at micromolar concentrations; also recorded: transient decrease in forskolin-stimulated cAMP level at sub-micromolar concentrations followed by an increase at micromolar concentrations | profound accumulation of IPX | – | 1.91 ± 0.07 fold over basal | 0.2 ± 0.1 | 0 | – | –
C[N+]1(Cc2cccs2)CC=CCC1.[I-] (stereo not shown) [Compound 7A, 1-methyl-1-[(thiophen-2-yl)methyl]-1,2,3,6-tetrahydropyridin-1-ium iodide] | comparable to inhibition by carbachol | only a decrease in cAMP level | negligible increase in IPX | 0 | – | – | – | – | –
O=C1CCCN1CC#CCN1CCCC1 [oxotremorine, reference compound] | – | – | – | 3.08 ± 0.28 | 1.60 ± 0.05 fold over basal | 0.2 ± 0.1 | −0.49 ± 0.05 | 209 nM | 251 nM
